The values below come from the NIST ThermoML archive (doi:10.1016/j.tca.2015.10.015).

± gives the expanded uncertainty stated by the source.

For data set [1] the following is noted: Crystal; DTA.
Data set [2] in a line: Molar enthalpy of transition or fusion. The following applies: Crystal; DSC.

With `CCCCCCCCCCCCCCCCOC(=O)CCC(=O)O` [succinic acid monohexadecyl ester], in data set [1], the Normal melting temperature is 64.20 ± 1.1 °C. For the same compound, the “Molar enthalpy of transition or fusion” value in data set [2] turned out to be 15.8 ± 0.43 kcal/mol.

`CCCCCCCCCCCCCCCCCCCCCCOC(=O)/C=C\C(=O)O` [maleic acid monodocosyl ester]: the Normal melting temperature in data set [1] is 82.00 ± 5 °C. Moreover, in data set [2], the “Molar enthalpy of transition or fusion” value was 20.8 ± 0.55 kcal/mol.

Regarding `CCCCCCCCCCCCCCCCCCCCCCOC(=O)CCC(=O)O` [succinic acid monodocosyl ester], the Normal melting temperature in data set [1] is 73.60 ± 1.1 °C. Besides, in data set [2], the “Molar enthalpy of transition or fusion” value is 22.2 ± 0.574 kcal/mol.

As for `CCCCCCCCOC(=O)/C=C\C(=O)O` [maleic acid monooctyl ester], the Normal melting temperature in data set [1] came out at 31.10 ± 3 °C. Moreover, the “Molar enthalpy of transition or fusion” value in data set [2] was found to be 7.93 ± 0.215 kcal/mol.

As for `CCCCCCCCCCCCOC(=O)/C=C\C(=O)O` [maleic acid monododecyl ester], the Normal melting temperature in data set [1] came to 51.30 ± 4 °C. For the same compound, in data set [2], the “Molar enthalpy of transition or fusion” value amounted to 12.4 ± 0.335 kcal/mol.

In the case of `CCCCCCCCCCCCCCCCOC(=O)/C=C\C(=O)O` [maleic acid monohexadecyl ester], in data set [1], the Normal melting temperature is 71.80 ± 3 °C. Also, the “Molar enthalpy of transition or fusion” value in data set [2] came out at 17.1 ± 0.454 kcal/mol.

Regarding `CCCCCCCCOC(=O)CCC(=O)O` [succinic acid monooctyl ester], the Normal melting temperature in data set [1] came out at 36.50 ± 1.1 °C. The “Molar enthalpy of transition or fusion” value in data set [2] is 9.99 ± 0.263 kcal/mol.

Consider `CCCCCCCCCCCCOC(=O)CCC(=O)O` [butanedioic acid, monododecyl ester], for which the Normal melting temperature in data set [1] is 45.80 ± 2.1 °C. Besides, the “Molar enthalpy of transition or fusion” value in data set [2] amounted to 12.7 ± 0.335 kcal/mol.
